Assay results reported in US6495133B1, “Gliocladium roseum strains useful for the control of fungal pathogens in plants” (priority 1998, dated 2002).
Read-outs that look alike come from different tables or passages of the source.

Experiments:
Type in all cases: in vivo
Mycosphaerella pinodes [1] = experiment: Control of mycosphaerella seedling blight/root rot in field pea, field experiments
Fusarium solani = experiment: Control of fusarium root rot in field pea, field experiments
[2] = tested on: Fusarium graminearum, Bipolaris sorokiniana, F. avenaceum, Alternaria alternata, and other Fusarium species (naturally infected seeds)
Sclerotinia sclerotiorum = experiment: Control of sclerotinia rot in field pea, field experiments
Aphanomyces euteiches = experiment: Control of aphanomyces root rot in field pea, field experiments
Mycosphaerella pinodes [3] = experiment: Control of seed-borne phase of mycosphaerella blight in field pea, field experiments; conditions: for increased emergence by / increased yield by: average of two cultivars
Rhizoctonia solani [4] = experiment: Control of rhizoctonia root rot, growth room experiments
Fusarium oxysporium = experiment: Control of fusarium wilt in field pea, field experiments
Rhizoctonia solani [5] = experiment: Control of rhizoctonia root rot in field pea, field experiments
[6] = barley, average of the two cultivars
[7] = Healthy-looking seed (HL), 1995, AC Tamor
[8] = Healthy-looking seed (HL), 1995, Radley
[9] = Healthy-looking seed (HL), 1996, AC Tamor
[10] = Healthy-looking seed (HL), 1996, Radley
[11] = Visibly poor seed (VP), 1995, AC Tamor
[12] = Visibly poor seed (VP), 1995, Radley
[13] = Visibly poor seed (VP), 1996, AC Tamor
[14] = Visibly poor seed (VP), 1996, Radley
[15] = Brussel Sprouts (cv. Long Island)
[16] = Cauliflower (cv. Early Snowball)
[17] = Egg Plant (cv. Early Long Purple)

CN(C)C(=S)SSC(=S)N(C)C [Thiram, thiram]
Emergence (Mycosphaerella pinodes [1]; 1996, AC Tamor): 76.3 a
Yield (Mycosphaerella pinodes [1]; 1996, AC Tamor): 2140 ab
Emergence (Mycosphaerella pinodes [1]; 1996, Radley): 84.5 a
Yield (Mycosphaerella pinodes [1]; 1996, Radley): 1623 a
Emergence (Mycosphaerella pinodes [1]; 1997, AC Tamor): 80.0 a
Yield (Mycosphaerella pinodes [1]; 1997, AC Tamor): 5645 a
Emergence (Mycosphaerella pinodes [1]; 1997, Radley): 80.2 a
Yield (Mycosphaerella pinodes [1]; 1997, Radley): 3328 a
Emergence (Fusarium solani; 1996, AC Tamor): 76.1 a
Yield (Fusarium solani; 1996, AC Tamor): 5374 a
Emergence (Fusarium solani; 1996, Radley): 81.4 a
Yield (Fusarium solani; 1996, Radley): 3674 a
Emergence (Fusarium solani; 1997, AC Tamor): 66.2 a
Yield (Fusarium solani; 1997, AC Tamor): 5600 a
Emergence (Fusarium solani; 1997, Radley): 65.7 b
Yield (Fusarium solani; 1997, Radley): 3379 a
Dry wt. ([2]; Barley, Argyle): 0.32 a g/plant
Emergence ([2]; Barley, Argyle): 93.9 a %
Fresh wt. ([2]; Barley, Argyle): 1.24 a g/plant
Root rot incidence ([2]; Barley, Argyle): 10.8 b %
Root rot severity ([2]; Barley, Argyle): 0.5 b 0-9
Dry wt. ([2]; Barley, Manley): 0.22 a g/plant
Emergence ([2]; Barley, Manley): 84.3 a %
Fresh wt. ([2]; Barley, Manley): 1.04 a g/plant
Root rot incidence ([2]; Barley, Manley): 77.8 a %
Root rot severity ([2]; Barley, Manley): 4.2 ab 0-9
Dry wt. ([2]; Wheat, Katepwa): 0.23 a g/plant
Emergence ([2]; Wheat, Katepwa): 70.7 a %
Fresh wt. ([2]; Wheat, Katepwa): 0.96 a g/plant
Root rot incidence ([2]; Wheat, Katepwa): 12.5 ab %
Root rot severity ([2]; Wheat, Katepwa): 0.7 ab 0-9
Dry wt. ([2]; Wheat, Plenty): 0.16 a g/plant
Emergence ([2]; Wheat, Plenty): 88.4 a %
Fresh wt. ([2]; Wheat, Plenty): 0.79 a g/plant
Root rot incidence ([2]; Wheat, Plenty): 10.1 b %
Root rot severity ([2]; Wheat, Plenty): 0.6 b 0-9
Dry wt. ([2]; Wheat, Sceptre): 0.14 a g/plant
Emergence ([2]; Wheat, Sceptre): 52.4 a %
Fresh wt. ([2]; Wheat, Sceptre): 0.65 a g/plant
Root rot incidence ([2]; Wheat, Sceptre): 24.7 b %
Root rot severity ([2]; Wheat, Sceptre): 1.1 b 0-9
reduced root rot incidence by [2, 6]: 31%
reduced root rot severity by [2, 6]: 38%
Emergence (Sclerotinia sclerotiorum; 1996, AC Tamor): 41.8 a
Yield (Sclerotinia sclerotiorum; 1996, AC Tamor): 4327 a
Emergence (Sclerotinia sclerotiorum; 1996, Radley): 48.9 a
Yield (Sclerotinia sclerotiorum; 1996, Radley): 2598 a
Emergence (Sclerotinia sclerotiorum; 1997, AC Tamor): 49.7 a
Yield (Sclerotinia sclerotiorum; 1997, AC Tamor): 5402 b
Emergence (Sclerotinia sclerotiorum; 1997, Radley): 50.5 a
Yield (Sclerotinia sclerotiorum; 1997, Radley): 5049 a
Emergence (Aphanomyces euteiches; 1998, Carneval): 88.1 a
Yield (Aphanomyces euteiches; 1998, Carneval): 6122 a
Emergence (Aphanomyces euteiches; 1998, Radley): 91.9 a
Yield (Aphanomyces euteiches; 1998, Radley): 5110 a
Emergence (Aphanomyces euteiches; 1999, Carneval): 90.3 a
Yield (Aphanomyces euteiches; 1999, Carneval): 4986 a
Emergence (Aphanomyces euteiches; 1999, Radley): 81.0 a
Yield (Aphanomyces euteiches; 1999, Radley): 4315 a
increased emergence by (Mycosphaerella pinodes [3]; HL seeds, 1995): 108%
increased yield by (Mycosphaerella pinodes [3]; HL seeds, 1995): 106%
decreased yield by (Mycosphaerella pinodes [3]; HL seeds, 1996): 6%
increased emergence by (Mycosphaerella pinodes [3]; HL seeds, 1996): 38%
Emergence (Mycosphaerella pinodes [3]; [7]): 75.9 a
Yield (Mycosphaerella pinodes [3]; [7]): 2892 a
Emergence (Mycosphaerella pinodes [3]; [8]): 91.0 a
Yield (Mycosphaerella pinodes [3]; [8]): 459 a
Emergence (Mycosphaerella pinodes [3]; [9]): 77.9 a
Yield (Mycosphaerella pinodes [3]; [9]): 7381 a
Emergence (Mycosphaerella pinodes [3]; [10]): 89.1 a
Yield (Mycosphaerella pinodes [3]; [10]): 3114 b
increased emergence by (Mycosphaerella pinodes [3]; VP seeds, 1995): 293%
increased yield by (Mycosphaerella pinodes [3]; VP seeds, 1995): 148%
increased emergence by (Mycosphaerella pinodes [3]; VP seeds, 1996): 55%
increased yield by (Mycosphaerella pinodes [3]; VP seeds, 1996): 4%
Emergence (Mycosphaerella pinodes [3]; [11]): 51.0 a
Yield (Mycosphaerella pinodes [3]; [11]): 260 a
Emergence (Mycosphaerella pinodes [3]; [12]): 29.1 a
Yield (Mycosphaerella pinodes [3]; [12]): 643 a
Emergence (Mycosphaerella pinodes [3]; [13]): 49.5 a
Yield (Mycosphaerella pinodes [3]; [13]): 7228 a
Emergence (Mycosphaerella pinodes [3]; [14]): 57.5 a
Yield (Mycosphaerella pinodes [3]; [14]): 4410 a
Dry wt. (Rhizoctonia solani [4]; Broccoli (cv. Green Sprouting)): 0.01 a g/plant
Emergence (Rhizoctonia solani [4]; Broccoli (cv. Green Sprouting)): 34.0 a %
Fresh wt. (Rhizoctonia solani [4]; Broccoli (cv. Green Sprouting)): 0.1 a g/plant
Root/foot rot severity (Rhizoctonia solani [4]; Broccoli (cv. Green Sprouting)): 5.1 ab 0-9
Dry wt. (Rhizoctonia solani [4]; [15]): 0.02 a g/plant
Emergence (Rhizoctonia solani [4]; [15]): 19.5 b %
Fresh wt. (Rhizoctonia solani [4]; [15]): 0.2 ab g/plant
Root/foot rot severity (Rhizoctonia solani [4]; [15]): 2.8 a 0-9
Dry wt. (Rhizoctonia solani [4]; Cabbage (cv. Golden Acre)): 0.01 a g/plant
Emergence (Rhizoctonia solani [4]; Cabbage (cv. Golden Acre)): 59.5 a %
Fresh wt. (Rhizoctonia solani [4]; Cabbage (cv. Golden Acre)): 0.2 a g/plant
Root/foot rot severity (Rhizoctonia solani [4]; Cabbage (cv. Golden Acre)): 2.9 b 0-9
Dry wt. (Rhizoctonia solani [4]; [16]): 0.01 a g/plant
Emergence (Rhizoctonia solani [4]; [16]): 11.5 b %
Fresh wt. (Rhizoctonia solani [4]; [16]): 0.1 a g/plant
Root/foot rot severity (Rhizoctonia solani [4]; [16]): 4.0 a 0-9
Dry wt. (Rhizoctonia solani [4]; Cucumber (cv. Imp. Long Green)): 0.06 a g/plant
Emergence (Rhizoctonia solani [4]; Cucumber (cv. Imp. Long Green)): 49.0 b %
Fresh wt. (Rhizoctonia solani [4]; Cucumber (cv. Imp. Long Green)): 0.5 a g/plant
Root/foot rot severity (Rhizoctonia solani [4]; Cucumber (cv. Imp. Long Green)): 2.2 b 0-9
Dry wt. (Rhizoctonia solani [4]; [17]): 0.01 a g/plant
Emergence (Rhizoctonia solani [4]; [17]): 79.3 a %
Fresh wt. (Rhizoctonia solani [4]; [17]): 0.1 a g/plant
Root/foot rot severity (Rhizoctonia solani [4]; [17]): 1.9 a 0-9
Dry wt. (Rhizoctonia solani [4]; Field pea (cv. Radley)): 0.27 a g/plant
Emergence (Rhizoctonia solani [4]; Field pea (cv. Radley)): 55.6 a %
Fresh wt. (Rhizoctonia solani [4]; Field pea (cv. Radley)): 2.4 a g/plant
Root/foot rot severity (Rhizoctonia solani [4]; Field pea (cv. Radley)): 3.4 a 0-9
Dry wt. (Rhizoctonia solani [4]; Garden Pea (cv. Green Arrow)): 0.15 a g/plant
Emergence (Rhizoctonia solani [4]; Garden Pea (cv. Green Arrow)): 89.2 a %
Fresh wt. (Rhizoctonia solani [4]; Garden Pea (cv. Green Arrow)): 1.3 a g/plant
Root/foot rot severity (Rhizoctonia solani [4]; Garden Pea (cv. Green Arrow)): 2.1 b 0-9
Dry wt. (Rhizoctonia solani [4]; Marigold (cv. Lemondrop)): 0.06 a g/plant
Emergence (Rhizoctonia solani [4]; Marigold (cv. Lemondrop)): 75.2 a %
Fresh wt. (Rhizoctonia solani [4]; Marigold (cv. Lemondrop)): 0.5 a g/plant
Root/foot rot severity (Rhizoctonia solani [4]; Marigold (cv. Lemondrop)): 2.1 a 0-9
Dry wt. (Rhizoctonia solani [4]; Pepper (cv. California Wonder)): 0.01 a g/plant
Emergence (Rhizoctonia solani [4]; Pepper (cv. California Wonder)): 70.5 b %
Fresh wt. (Rhizoctonia solani [4]; Pepper (cv. California Wonder)): 0.1 a g/plant
Root/foot rot severity (Rhizoctonia solani [4]; Pepper (cv. California Wonder)): 1.3 a 0-9
Dry wt. (Rhizoctonia solani [4]; Sugar beet (cv. US H2O)): 0.29 a g/plant
Emergence (Rhizoctonia solani [4]; Sugar beet (cv. US H2O)): 57.5 a %
Fresh wt. (Rhizoctonia solani [4]; Sugar beet (cv. US H2O)): 4.4 a g/plant
Root/foot rot severity (Rhizoctonia solani [4]; Sugar beet (cv. US H2O)): 1.6 b 0-9
Dry wt. (Rhizoctonia solani [4]; Table beet (cv. Ruby Queen)): 0.01 a g/plant
Emergence (Rhizoctonia solani [4]; Table beet (cv. Ruby Queen)): 78.5 a %
Fresh wt. (Rhizoctonia solani [4]; Table beet (cv. Ruby Queen)): 0.1 a g/plant
Root/foot rot severity (Rhizoctonia solani [4]; Table beet (cv. Ruby Queen)): 2.3 b 0-9
Dry wt. (Rhizoctonia solani [4]; Tomato (cv. Bush Beefsteak)): 0.01 a g/plant
Emergence (Rhizoctonia solani [4]; Tomato (cv. Bush Beefsteak)): 87.8 a %
Fresh wt. (Rhizoctonia solani [4]; Tomato (cv. Bush Beefsteak)): 0.1 a g/plant
Root/foot rot severity (Rhizoctonia solani [4]; Tomato (cv. Bush Beefsteak)): 1.5 a 0-9
Emergence (Fusarium oxysporium; 1996, AC Tamor): 78.3 a
Yield (Fusarium oxysporium; 1996, AC Tamor): 5203 a
Emergence (Fusarium oxysporium; 1996, Radley): 85.9 ab
Yield (Fusarium oxysporium; 1996, Radley): 2442 a
Emergence (Fusarium oxysporium; 1997, AC Tamor): 84.0 a
Yield (Fusarium oxysporium; 1997, AC Tamor): 6625 a
Emergence (Fusarium oxysporium; 1997, Radley): 63.8 ab
Yield (Fusarium oxysporium; 1997, Radley): 5037 b
Emergence (Rhizoctonia solani [5]; 1996, AC Tamor): 45.5 a
Yield (Rhizoctonia solani [5]; 1996, AC Tamor): 2497 a
Emergence (Rhizoctonia solani [5]; 1996, Radley): 47.4 a
Yield (Rhizoctonia solani [5]; 1996, Radley): 1589 a
increased emergence by (Rhizoctonia solani [5]; 1996, average of two varieties): 2%
reduced yield by (Rhizoctonia solani [5]; 1996, average of two varieties): 12.5%
effect on emergence (Rhizoctonia solani [5]; 1997): increased emergence significantly
effect on yield (Rhizoctonia solani [5]; 1997): did not increase the yield
Emergence (Rhizoctonia solani [5]; 1997, AC Tamor): 76.0 a
Yield (Rhizoctonia solani [5]; 1997, AC Tamor): 5367 a
Emergence (Rhizoctonia solani [5]; 1997, Radley): 58.6 b
Yield (Rhizoctonia solani [5]; 1997, Radley): 4666 a
